Patent US10981894B2, “Melanocortin subtype-2 receptor (MC2R) antagonists and uses thereof” (Crinetics Pharmaceuticals, Inc., priority 2018, dated 2021)

Target: hMC2 receptor (Homo sapiens, UniProt Q01718)
Assay: hMC2 membrane binding assay ([125I]ACTH (1-39) Tyr23, SPA)
Parameters: scale not given here
Settings: crude hMC2R membranes from CRE-bla-CHO-K1 cells expressing hMC2 receptor and hMRAP; [125I]ACTH (1-39) Tyr23 0.2 nM; 1.5 hours at room temperature; read-out: MC2R binding potency
Procedure, shortened: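 CRE-bla-CHO-K1 membranes co-expressing hMC2 receptor and hMRAP, preincubated with WGA PVT SPA beads in pH 7.4 HEPES/MgCl2/CaCl2/0.2% BSA buffer. Compounds (typically 0–10,000 nM final) compete with 0.2 nM [125I]ACTH(1-39) Tyr23 for 1.5 h at room temperature. SPA counts give Ki by non-linear regression.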

hMC2 receptor, sequence (Q01718 whole entry): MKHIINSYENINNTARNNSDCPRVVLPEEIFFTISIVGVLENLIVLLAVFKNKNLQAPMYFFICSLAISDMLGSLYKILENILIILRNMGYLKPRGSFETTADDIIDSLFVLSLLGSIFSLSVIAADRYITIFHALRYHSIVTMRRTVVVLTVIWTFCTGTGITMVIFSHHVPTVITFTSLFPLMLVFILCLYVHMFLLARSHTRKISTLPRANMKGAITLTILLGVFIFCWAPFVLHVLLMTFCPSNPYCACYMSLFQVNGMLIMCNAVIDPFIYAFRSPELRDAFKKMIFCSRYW
hMC2 receptor, sequence (Q8TCY5 whole entry partner): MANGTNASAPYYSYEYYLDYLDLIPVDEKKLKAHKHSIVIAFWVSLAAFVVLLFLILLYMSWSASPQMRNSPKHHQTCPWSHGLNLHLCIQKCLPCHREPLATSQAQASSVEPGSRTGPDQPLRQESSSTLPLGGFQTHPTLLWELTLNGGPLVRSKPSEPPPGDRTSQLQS

SMILES	Ki
CCOc1ccccc1-c1ccc(N2CCN(C(=O)c3ccc(Cl)cc3C(F)(F)F)C[C@H]2CC)c(C(=O)NC2CN(C)C2)n1 [Compound 1-221, 3-[(2R)-4-[4-chloro-2-(trifluoromethyl)benzoyl]-2-ethylpiperazin-1-yl]-6-(2-ethoxyphenyl)-N-(1-methylazetidin-3-yl)pyridine-2-carboxamide]	< 10 nM
CCOc1ncccc1-c1ccc(N2CCN(C(=O)c3ccc(F)cc3C(F)(F)F)C[C@H]2CC)c(C(=O)NCCc2ncc[nH]2)n1 [Compound 1-224, 2′-ethoxy-5-[(2R)-2-ethyl-4-[4-fluoro-2-(trifluoromethyl)benzoyl]piperazin-1-yl]-N-[2-(1H-imidazol-2-yl)ethyl]-[2,3′-bipyridine]-6-carboxamide]	< 10 nM
CCOc1ncccc1-c1ccc(N2CCN(C(=O)c3ccc(Cl)cc3C(F)(F)F)C[C@H]2CC)c(C(=O)NCC2=NCCN2C)n1 [Compound 1-227, 5-[(2R)-4-[4-chloro-2-(trifluoromethyl)benzoyl]-2-ethylpiperazin-1-yl]-2′-ethoxy-N-[(1-methyl-4,5-dihydro-1H-imidazol-2-yl)methyl]-[2,3′-bipyridine]-6-carboxamide]	< 10 nM
CCOc1ncccc1-c1ccc(N2CCN(C(=O)c3ccc(Cl)cc3C(F)(F)F)C[C@H]2CC)c(C(=O)NC[C@H]2CCN2C)c1 [Compound 1-228, 2-[(2R)-4-[4-chloro-2-(trifluoromethyl)benzoyl]-2-ethylpiperazin-1-yl]-5-(2-ethoxypyridin-3-yl)-N-{[(2R)-1-methylazetidin-2-yl]methyl}benzamide]	< 10 nM
CCOc1ncccc1-c1ccc(N2CCN(C(=O)c3ccc(Cl)cc3C(F)(F)F)C[C@H]2CC)c(C(=O)NC[C@H]2CCN2C)n1 [Compound 1-231, 5-[(2R)-4-[4-chloro-2-(trifluoromethyl)benzoyl]-2-ethylpiperazin-1-yl]-2′-ethoxy-N-{[(2R)-1-methylazetidin-2-yl]methyl}-[2,3′-bipyridine]-6-carboxamide]	< 10 nM
CCOc1ncccc1-c1ccc(N2CCN(C(=O)c3ccc(Cl)cc3C(F)(F)F)C[C@H]2CC)c(C(=O)NC[C@@H]2CCN2C)n1 [Compound 1-232, 5-[(2R)-4-[4-chloro-2-(trifluoromethyl)benzoyl]-2-ethylpiperazin-1-yl]-2′-ethoxy-N-{[(2S)-1-methylazetidin-2-yl]methyl}-[2,3′-bipyridine]-6-carboxamide]	< 10 nM
CCOc1ccc(C(=O)N2CCN(c3ccc(-c4cccnc4OCC)nc3C(=O)NC3CN(C)C3)[C@H](CC)C2)c(C(F)(F)F)n1 [Compound 1-233, 2′-ethoxy-5-[(2R)-4-[6-ethoxy-2-(trifluoromethyl)pyridine-3-carbonyl]-2-ethylpiperazin-1-yl]-N-(1-methylazetidin-3-yl)-[2,3′-bipyridine]-6-carboxamide]	< 10 nM
CCOc1ccccc1-c1ccc(N2CCN(C(=O)c3ccc(OC)nc3C(F)(F)F)C[C@H]2CC)c(C(=O)NC2CN(C)C2)n1 [Compound 1-236, 6-(2-ethoxyphenyl)-3-[(2R)-2-ethyl-4-[6-methoxy-2-(trifluoromethyl)pyridine-3-carbonyl]piperazin-1-yl]-N-(1-methylazetidin-3-yl)pyridine-2-carboxamide]	< 10 nM
CCOc1ncccc1-c1ccc(N2CCN(C(=O)C3C4CC5CC(C4)CC3C5)C[C@H]2CC)c(C(=O)NC2CN(C)C2)n1 (stereo partly drawn) [Compound 1-238, 5-[(2R)-4-(adamantane-2-carbonyl)-2-ethylpiperazin-1-yl]-2′-ethoxy-N-(1-methylazetidin-3-yl)-[2,3′-bipyridine]-6-carboxamide]	< 10 nM
CCOc1ncccc1-c1ccc(N2CCN(C(=O)c3ccc(OC)nc3C(F)(F)F)C[C@H]2CC)c(C(=O)N[C@@H]2CCNC2)n1 [Compound 1-240, 2′-ethoxy-5-[(2R)-2-ethyl-4-[6-methoxy-2-(trifluoromethyl)pyridine-3-carbonyl]piperazin-1-yl]-N-[(3R)-pyrrolidin-3-yl]-[2,3′-bipyridine]-6-carboxamide]	< 10 nM
CCOc1ccc(C(=O)N2CCN(c3ccc(-c4cccnc4OCC)nc3C(=O)N[C@@H]3CCN(C)C3)[C@H](CC)C2)c(C(F)(F)F)n1 [Compound 1-243, 2′-ethoxy-5-[(2R)-4-[6-ethoxy-2-(trifluoromethyl)pyridine-3-carbonyl]-2-ethylpiperazin-1-yl]-N-[(3R)-1-methylpyrrolidin-3-yl]-[2,3′-bipyridine]-6-carboxamide]	< 10 nM
CCOc1ncccc1-c1ccc(N2CCN(C(=O)c3ccc(OC)nc3C(F)(F)F)C[C@H]2CC)c(C(=O)NC[C@@H]2CCN2)n1 [Compound 1-244, N-{[(2S)-azetidin-2-yl]methyl}-2′-ethoxy-5-[(2R)-2-ethyl-4-[6-methoxy-2-(trifluoromethyl)pyridine-3-carbonyl]piperazin-1-yl]-[2,3′-bipyridine]-6-carboxamide]	< 10 nM

The remaining lines, values ahead:

Ki	SMILES
< 10 nM	CCOc1ncccc1-c1ccc(N2CCN(C(=O)c3ccc(Cl)cc3C(F)(F)F)C[C@H]2CC)c(C(=O)NCC2CNC2)n1 [Compound 1-222, N-[(azetidin-3-yl)methyl]-5-[(2R)-4-[4-chloro-2-(trifluoromethyl)benzoyl]-2-ethylpiperazin-1-yl]-2′-ethoxy-[2,3′-bipyridine]-6-carboxamide]
< 10 nM	CCOc1ncccc1-c1ccc(N2CCN(C(=O)c3ccc(Cl)cc3C(F)(F)F)C[C@H]2CC)c(C(=O)NCC2CN(C)C2)n1 [Compound 1-223, 5-[(2R)-4-[4-chloro-2-(trifluoromethyl)benzoyl]-2-ethylpiperazin-1-yl]-2′-ethoxy-N-[(1-methylazetidin-3-yl)methyl]-[2,3′-bipyridine]-6-carboxamide]
< 10 nM	CCNc1ccc(C(=O)N2CCN(c3ccc(-c4cccnc4OCC)nc3C(=O)NCCNC)[C@H](CC)C2)c(C(F)(F)F)n1 [Compound 1-225, 2′-ethoxy-5-[(2R)-2-ethyl-4-[6-(ethylamino)-2-(trifluoromethyl)pyridine-3-carbonyl]piperazin-1-yl]-N-[2-(methylamino)ethyl]-[2,3′-bipyridine]-6-carboxamide]
< 10 nM	CCOc1ncccc1-c1ccc(N2CCN(C(=O)c3ccc(Cl)cc3C(F)(F)F)C[C@H]2CC)c(C(=O)NCC2=NCCN2)n1 [Compound 1-226, 5-[(2R)-4-[4-chloro-2-(trifluoromethyl)benzoyl]-2-ethylpiperazin-1-yl]-N-[(4,5-dihydro-1H-imidazol-2-yl)methyl]-2′-ethoxy-[2,3′-bipyridine]-6-carboxamide]
< 10 nM	CCOc1ncccc1-c1ccc(N2CCN(C(=O)c3ccc(Cl)cc3C(F)(F)F)C[C@H]2CC)c(C(=O)NC[C@@H]2CCN2C)c1F [Compound 1-229, 6-[(2R)-4-[4-chloro-2-(trifluoromethyl)benzoyl]-2-ethylpiperazin-1-yl]-3-(2-ethoxypyridin-3-yl)-2-fluoro-N-{[(2S)-1-methylazetidin-2-yl]methyl}benzamide]
< 10 nM	CCOc1ncccc1-c1ccc(N2CCN(C(=O)c3ccc(OC)nc3C(F)(F)F)C[C@H]2CC)c(C(=O)NC2CN(C)C2)n1 [Compound 1-230, 2′-ethoxy-5-[(2R)-2-ethyl-4-[6-methoxy-2-(trifluoromethyl)pyridine-3-carbonyl]piperazin-1-yl]-N-(1-methylazetidin-3-yl)-[2,3′-bipyridine]-6-carboxamide]
< 10 nM	CCOc1ncccc1-c1ccc(N2CCN(C(=O)c3ccc(Cl)cc3C(F)(F)F)C[C@H]2CC)c(C(=O)NCCc2nccn2C)n1 [Compound 1-234, 5-[(2R)-4-[4-chloro-2-(trifluoromethyl)benzoyl]-2-ethylpiperazin-1-yl]-2′-ethoxy-N-[2-(1-methyl-1H-imidazol-2-yl)ethyl]-[2,3′-bipyridine]-6-carboxamide]
< 10 nM	CCOc1ccc(C(=O)N2CCN(c3ccc(-c4ccccc4OCC)nc3C(=O)NC3CN(C)C3)[C@H](CC)C2)c(C(F)(F)F)n1 [Compound 1-237, 3-[(2R)-4-[6-ethoxy-2-(trifluoromethyl)pyridine-3-carbonyl]-2-ethylpiperazin-1-yl]-6-(2-ethoxyphenyl)-N-(1-methylazetidin-3-yl)pyridine-2-carboxamide]
< 10 nM	CCOc1ncccc1-c1ccc(N2CCN(C(=O)c3ccc(OC)nc3C(F)(F)F)C[C@H]2CC)c(C(=O)N[C@@H]2CCN(C)C2)n1 [Compound 1-239, 2′-ethoxy-5-[(2R)-2-ethyl-4-[6-methoxy-2-(trifluoromethyl)pyridine-3-carbonyl]piperazin-1-yl]-N-[(3R)-1-methylpyrrolidin-3-yl]-[2,3′-bipyridine]-6-carboxamide]
< 10 nM	CCOc1ncccc1-c1ccc(N2CCN(C(=O)C3(C(F)(F)F)CCCC3)C[C@H]2CC)c(C(=O)NC2CN(C)C2)n1 [Compound 1-241, 2′-ethoxy-5-[(2R)-2-ethyl-4-[1-(trifluoromethyl)cyclopentanecarbonyl]piperazin-1-yl]-N-(1-methylazetidin-3-yl)-[2,3′-bipyridine]-6-carboxamide]
< 10 nM	CCOc1ncccc1-c1ccc(N2CCN(C(=O)c3ccc(OC)nc3C(F)(F)F)C[C@H]2CC)c(C(=O)NCC2CN(C)C2)n1 [Compound 1-242, 2′-ethoxy-5-[(2R)-2-ethyl-4-[6-methoxy-2-(trifluoromethyl)pyridine-3-carbonyl]piperazin-1-yl]-N-[(1-methylazetidin-3-yl)methyl]-[2,3′-bipyridine]-6-carboxamide]
< 10 nM	CCOc1ncccc1-c1ccc(N2CCN(C(=O)c3ccc(OC)nc3C(F)(F)F)C[C@H]2CC)c(C(=O)NC[C@@H]2CCN2C)n1 [Compound 1-245, 2′-ethoxy-5-[(2R)-2-ethyl-4-[6-methoxy-2-(trifluoromethyl)pyridine-3-carbonyl]piperazin-1-yl]-N-{[(2S)-1-methylazetidin-2-yl]methyl}-[2,3′-bipyridine]-6-carboxamide]
